Patent US8835503B2, “Pharmaceutical composition containing GLUR2-lacking AMPAR antagonist for preventing or treating psychiatric illnesses” (SNU R&DB Foundation, priority 2009, dated 2014)

System: fear memory renewal
Assay: Blocking of fear memory renewal by NASPM administered into the amygdala (freezing response)
Type: in vivo, rat
Conditions: for fear responses (freezing) in memory renewal test: 15 minutes before measuring fear memory, vs control group
Protocol: For fear memory learning, the rats were exposed to sound stimuli of a single tone (2.8 kHz, 85 dB) for 30 seconds, and subjected to an electric foot shock (1.0 mA) for 1 second at the end of said 30-second period. The sound stimuli and the electric foot shock were repeated 3 times at 100 second intervals. 1 minute later after the last electric foot shock, the rats were returned to their home cages. On day 2, fear memory learning was performed in the same way.
From day 3, memory extinction was performed in a context different from that of the fear memory learning On day 4, the rats were exposed to only sound stimuli 20 times at 100 second intervals without an electric foot shock. On days 5 and 6, the sound stimuli were repeated 15 times at 100 second intervals.
On day 7, memory renewal test was performed. The rats experienced memory extinction were placed in the place of the fear memory learning for 10 minutes, and then, memory renewal was induced by exposing the rats to sound stimuli for 30 seconds.
The experiment was performed using the rats which experienced fear memory learning, memory extinction and memory renewal in accordance with the method described in Example 1-1. White rats, 8-9 weeks old (Sprague-Dawley Rat, Male; Samtako, Korea), were used.
The rats were anesthetized by intraperitoneal injection of pentobarbital sodium (50 mg/kg; Entobal, Hanlim Pharma, Co., Ltd., Korea). After fully anesthetized, the rats were mounted on a stereotaxic apparatus (David Kopf Instruments, Tujunga, Calif., USA), and then, stainless steel cannulas of 26 gauge (Model C315G, Plastic Products, Roanoke, Va., USA) were implanted bilaterally into the amygdala (AP; […], ML; +/−5.15, DV; −7.0 mm) by operation. A 32 gauge dummy cannula was inserted into each cannula to prevent clogging. After a recovery period of at least 1 week, the rats were subjected to fear memory learning, memory extinction and memory renewal tests. […]
Conditioned freezing was defined as immobility except for respiratory movements, and was quantified by trained observers that were blind to the experimental groups.

N-naphthylspermine [NASPM]
fear responses (freezing) in memory renewal test (10 μg NASPM into the amygdala): insignificant effect
fear responses (freezing) in memory renewal test (40 μg NASPM into the amygdala): remarkably less fear responses
blocking of fear memory renewal (administered in the amygdala, 10 μg and 40 μg): blocks the fear memory renewal in a concentration-dependent manner
